Test results reported in ChEMBL document CHEMBL1201862, “PubChem BioAssay data set” (2004).
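A five-concentration, 48-hour dose response in 96-well plates underlies each endpoint, interpolated linearly between surrounding concentrations. GI50 is the concentration that inhibits growth by half.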 Activity calls are given as the source filed them. Cut-off read from the data, not from the text of the source: active = GI50 up to about 1.1 µM and inactive = higher.

Legend:
Test in all cases: NCI-60 cell line screen, 48 h
KM12 = test system: KM12
SF-295 = test system: SF-295
HCT-116 = test system: HCT-116
NCI-H522 = test system: NCI-H522
M14 = test system: M14
SK-MEL-2 = test system: SK-MEL-2
SNB-19 = test system: SNB-19
COLO 205 = test system: COLO 205
SF-539 = test system: SF-539
BT-549 = test system: BT-549
SW-620 = test system: SW-620
SK-MEL-5 = test system: SK-MEL-5
OVCAR-8 = test system: OVCAR-8
NCI-H226 = test system: NCI-H226
SR = test system: SR
T47D = test system: T47D
U-251 = test system: U-251
HOP-62 = test system: HOP-62
MDA-MB-435 = test system: MDA-MB-435
UACC-257 = test system: UACC-257

| Structure (SMILES) | GI50 (KM12) | GI50 (SF-295) | GI50 (HCT-116) | GI50 (NCI-H522) | GI50 (M14) | GI50 (SK-MEL-2) | GI50 (SNB-19) | GI50 (COLO 205) | GI50 (SF-539) | GI50 (BT-549) | GI50 (SW-620) | GI50 (SK-MEL-5) | GI50 (OVCAR-8) | GI50 (NCI-H226) | GI50 (SR) | GI50 (T47D) | GI50 (U-251) | GI50 (HOP-62) | GI50 (MDA-MB-435) | GI50 (UACC-257) |
| --- | --- | --- | --- | --- | --- | --- | --- | --- | --- | --- | --- | --- | --- | --- | --- | --- | --- | --- | --- | --- |
| Cc1ccc(C2(C)CC/C(=N/N=C3/CCC(C)(c4ccc(C)c(C)c4)c4cc(C)c(C)cc43)c3cc(C)c(C)cc32)cc1C (centres undefined) | > 100 µM (inactive) | > 100 µM (inactive) | > 100 µM (inactive) | > 100 µM (inactive) | > 100 µM (inactive) | > 100 µM (inactive) | > 100 µM (inactive) | > 100 µM (inactive) | > 100 µM (inactive) | > 100 µM (inactive) | > 100 µM (inactive) | > 100 µM (inactive) | > 100 µM (inactive) | > 100 µM (inactive) | > 100 µM (inactive) | > 100 µM (inactive) | > 100 µM (inactive) | > 100 µM (inactive) | > 100 µM (inactive) |  |
| CC(C)(C)N/N=C(/Cc1nc2c3c(ccc2nc1O)C(=O)c1ccccc1C3=O)C(=O)NC1=C(Cl)C(=O)c2ccccc2C1=O | 2.7 µM (inactive) | 39.4 µM (inactive) | 13.9 µM (inactive) | 16.9 µM (inactive) | 15.5 µM (inactive) | 12.4 µM (inactive) | 72.8 µM (inactive) | 24 µM (inactive) | 21 µM (inactive) | 70.5 µM (inactive) | 39.3 µM (inactive) | 11.1 µM (inactive) | 10 µM (inactive) | 10.7 µM (inactive) | 27.7 µM (inactive) | 23.3 µM (inactive) | 47.8 µM (inactive) |  | 33 µM (inactive) | 57.9 µM (inactive) |
| CN(C)CCCN1c2ccccc2CCc2cc([N+](=O)[O-])ccc21 | 17.5 µM (inactive) | 14.5 µM (inactive) | 15.7 µM (inactive) | 15.7 µM (inactive) | 16.3 µM (inactive) | 20 µM (inactive) | 16.9 µM (inactive) | 16.4 µM (inactive) | 15.1 µM (inactive) | 16.6 µM (inactive) |  | 12.9 µM (inactive) | 15.7 µM (inactive) | 17.5 µM (inactive) | 18.7 µM (inactive) | 17.1 µM (inactive) | 17.4 µM (inactive) | 15.8 µM (inactive) | 15.8 µM (inactive) | 15 µM (inactive) |
| CCn1c(CCl)nc2c1C(=O)c1ccccc1C2=O | 1.73 µM (inactive) | 1.88 µM (inactive) | 2.13 µM (inactive) | 0.292 µM (active) | 1.63 µM (inactive) |  | 1.87 µM (inactive) |  | 2.23 µM (inactive) | 2.18 µM (inactive) | 1.33 µM (inactive) | 0.42 µM (active) | 1.58 µM (inactive) | 0.225 µM (active) | 0.401 µM (active) | 1.95 µM (inactive) | 1.71 µM (inactive) | 2.42 µM (inactive) | 1.69 µM (inactive) | 1.67 µM (inactive) |
| CSC1=Nc2ccccc2-c2nc3ccccc3cc2C1 | 14.4 µM (inactive) | > 100 µM (inactive) | > 100 µM (inactive) | 69.2 µM (inactive) | > 100 µM (inactive) | > 100 µM (inactive) | > 100 µM (inactive) | > 100 µM (inactive) | > 100 µM (inactive) | > 100 µM (inactive) |  | > 100 µM (inactive) | > 100 µM (inactive) | > 100 µM (inactive) | 29.9 µM (inactive) | 25.9 µM (inactive) | > 100 µM (inactive) | > 100 µM (inactive) | > 100 µM (inactive) | > 100 µM (inactive) |
| CCOC(=O)c1cnc(-n2[nH]c3c(c2=O)CCCC3)[nH]c1=O | 67.5 µM (inactive) | 62.7 µM (inactive) | 36.4 µM (inactive) | 52.4 µM (inactive) | 36.4 µM (inactive) | 42.6 µM (inactive) | > 100 µM (inactive) | 26.2 µM (inactive) | 48.1 µM (inactive) | 47.1 µM (inactive) | 35.2 µM (inactive) | 75.2 µM (inactive) | 37.5 µM (inactive) | 47.1 µM (inactive) | 13.3 µM (inactive) | > 100 µM (inactive) | 39.7 µM (inactive) |  | 47.8 µM (inactive) | 32.4 µM (inactive) |
| c1ccc2c(C3CCN(CCN4CCOCC4)C3)c[nH]c2c1 (centres undefined) | > 100 µM (inactive) | > 100 µM (inactive) | > 100 µM (inactive) | > 100 µM (inactive) | > 100 µM (inactive) | > 100 µM (inactive) | > 100 µM (inactive) |  |  | > 100 µM (inactive) | > 100 µM (inactive) | > 100 µM (inactive) | > 100 µM (inactive) |  | > 100 µM (inactive) | > 100 µM (inactive) | > 100 µM (inactive) | > 100 µM (inactive) | > 100 µM (inactive) | > 100 µM (inactive) |
| O=C(Cn1c2ccc(Br)cc2c2nc3ccccc3nc21)NNC(=O)NC1CCCCC1 | 37.4 µM (inactive) | 34.3 µM (inactive) | 57.3 µM (inactive) | 72.8 µM (inactive) | 40.3 µM (inactive) | > 100 µM (inactive) | 89.1 µM (inactive) | 86.9 µM (inactive) | > 100 µM (inactive) | > 100 µM (inactive) | 33 µM (inactive) | > 100 µM (inactive) | 35.9 µM (inactive) |  | 31 µM (inactive) | 33 µM (inactive) | 30.1 µM (inactive) | 27.7 µM (inactive) | 32.7 µM (inactive) | 98.9 µM (inactive) |
| CSc1c(C(=O)Nc2ccccc2)c(N)nn1-c1ccccc1 | > 100 µM (inactive) |  | > 100 µM (inactive) |  | > 100 µM (inactive) | > 100 µM (inactive) | > 100 µM (inactive) | > 100 µM (inactive) | > 100 µM (inactive) | > 100 µM (inactive) | > 100 µM (inactive) | > 100 µM (inactive) | > 100 µM (inactive) | > 100 µM (inactive) | > 100 µM (inactive) | > 100 µM (inactive) | > 100 µM (inactive) |  | > 100 µM (inactive) | > 100 µM (inactive) |
| O=C(O)CSc1nnc(CCCCCCCCc2nnc(SCC(=O)O)o2)o1 | > 100 µM (inactive) | > 100 µM (inactive) | > 100 µM (inactive) | > 100 µM (inactive) | > 100 µM (inactive) | > 100 µM (inactive) | > 100 µM (inactive) | > 100 µM (inactive) |  | > 100 µM (inactive) | > 100 µM (inactive) | > 100 µM (inactive) | 55.5 µM (inactive) | > 100 µM (inactive) | > 100 µM (inactive) | > 100 µM (inactive) | > 100 µM (inactive) | > 100 µM (inactive) | > 100 µM (inactive) | > 100 µM (inactive) |
| CCOP(=O)(O)CN1CCNCCN(CP(=O)(O)OCC)CCNCC1 | > 100 µM (inactive) | > 100 µM (inactive) | > 100 µM (inactive) | > 100 µM (inactive) |  | > 100 µM (inactive) | > 100 µM (inactive) | 91.4 µM (inactive) | > 100 µM (inactive) | > 100 µM (inactive) | > 100 µM (inactive) | > 100 µM (inactive) | > 100 µM (inactive) | > 100 µM (inactive) | > 10 µM (inactive) | > 100 µM (inactive) | > 100 µM (inactive) | > 100 µM (inactive) | > 100 µM (inactive) | > 100 µM (inactive) |
